Reference: patent US12479847B2 (DANA-FARBER CANCER INSTITUTE, INC., priority 2019, dated 2025)

Experiments:
Assay in all cases: KINOMEscan (ScanMAX) kinase profiling
Type in all cases: binding
panel of 468 kinases [1] = biological target: T1, panel of 468 kinases (Homo sapiens, UniProt O14757); details: CHEK1; 1 μM; read-out: % control
T1 construct: purchased KINOMEscan (ScanMAX) service
T1 sequence (O14757 1-476): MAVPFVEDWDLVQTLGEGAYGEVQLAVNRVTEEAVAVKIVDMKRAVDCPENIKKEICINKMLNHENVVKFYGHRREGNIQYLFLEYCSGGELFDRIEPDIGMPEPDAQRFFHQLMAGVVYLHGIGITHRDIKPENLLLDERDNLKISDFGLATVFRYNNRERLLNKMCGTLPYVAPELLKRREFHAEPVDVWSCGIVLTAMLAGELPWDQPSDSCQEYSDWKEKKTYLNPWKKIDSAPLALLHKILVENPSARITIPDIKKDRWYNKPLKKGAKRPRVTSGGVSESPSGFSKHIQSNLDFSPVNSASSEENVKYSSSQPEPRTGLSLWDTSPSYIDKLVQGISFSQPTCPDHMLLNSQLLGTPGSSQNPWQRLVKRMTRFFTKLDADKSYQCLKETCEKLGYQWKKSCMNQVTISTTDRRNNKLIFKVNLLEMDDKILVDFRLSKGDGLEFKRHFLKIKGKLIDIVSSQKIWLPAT

panel of 468 kinases [2] = biological target: T2, panel of 468 kinases (Homo sapiens, UniProt P00533, T790M); details: EGFR(T790M); 1 μM; read-out: % control
T2 construct: purchased KINOMEscan (ScanMAX) service

panel of 468 kinases [3] = biological target: T3, panel of 468 kinases (Homo sapiens, UniProt O76039); details: CDKL5; 1 μM; read-out: % control
T3 construct: purchased KINOMEscan (ScanMAX) service
T3 sequence (O76039 1-960): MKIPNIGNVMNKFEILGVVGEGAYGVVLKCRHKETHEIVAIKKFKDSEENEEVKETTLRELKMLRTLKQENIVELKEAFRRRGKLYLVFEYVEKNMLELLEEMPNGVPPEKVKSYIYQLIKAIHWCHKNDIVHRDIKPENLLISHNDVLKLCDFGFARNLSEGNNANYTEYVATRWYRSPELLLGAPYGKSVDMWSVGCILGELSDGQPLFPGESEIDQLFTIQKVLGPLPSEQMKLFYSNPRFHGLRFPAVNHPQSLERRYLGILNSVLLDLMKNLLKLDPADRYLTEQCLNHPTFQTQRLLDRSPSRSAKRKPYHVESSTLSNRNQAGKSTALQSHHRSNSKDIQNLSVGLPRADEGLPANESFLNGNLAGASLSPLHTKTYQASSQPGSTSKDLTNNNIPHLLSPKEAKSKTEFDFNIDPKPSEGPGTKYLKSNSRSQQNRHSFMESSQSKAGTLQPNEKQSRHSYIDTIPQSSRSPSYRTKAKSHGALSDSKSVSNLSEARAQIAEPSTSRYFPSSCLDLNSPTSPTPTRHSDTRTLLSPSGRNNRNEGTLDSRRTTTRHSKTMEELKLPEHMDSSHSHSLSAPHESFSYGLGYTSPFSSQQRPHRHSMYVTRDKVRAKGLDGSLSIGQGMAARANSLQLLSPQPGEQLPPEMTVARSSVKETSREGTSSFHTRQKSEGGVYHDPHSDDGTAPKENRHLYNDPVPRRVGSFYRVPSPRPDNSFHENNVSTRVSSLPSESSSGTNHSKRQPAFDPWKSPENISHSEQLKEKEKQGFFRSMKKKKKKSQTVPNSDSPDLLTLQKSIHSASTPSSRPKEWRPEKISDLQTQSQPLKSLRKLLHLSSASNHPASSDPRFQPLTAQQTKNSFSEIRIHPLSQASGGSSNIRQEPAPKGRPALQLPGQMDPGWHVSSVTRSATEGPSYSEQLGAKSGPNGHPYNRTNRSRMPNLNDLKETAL

panel of 468 kinases [4] = biological target: T4, panel of 468 kinases (Homo sapiens, UniProt Q9NRM7); details: LATS2; 1 μM; read-out: % control
T4 construct: purchased KINOMEscan (ScanMAX) service
T4 sequence (Q9NRM7 1-1088): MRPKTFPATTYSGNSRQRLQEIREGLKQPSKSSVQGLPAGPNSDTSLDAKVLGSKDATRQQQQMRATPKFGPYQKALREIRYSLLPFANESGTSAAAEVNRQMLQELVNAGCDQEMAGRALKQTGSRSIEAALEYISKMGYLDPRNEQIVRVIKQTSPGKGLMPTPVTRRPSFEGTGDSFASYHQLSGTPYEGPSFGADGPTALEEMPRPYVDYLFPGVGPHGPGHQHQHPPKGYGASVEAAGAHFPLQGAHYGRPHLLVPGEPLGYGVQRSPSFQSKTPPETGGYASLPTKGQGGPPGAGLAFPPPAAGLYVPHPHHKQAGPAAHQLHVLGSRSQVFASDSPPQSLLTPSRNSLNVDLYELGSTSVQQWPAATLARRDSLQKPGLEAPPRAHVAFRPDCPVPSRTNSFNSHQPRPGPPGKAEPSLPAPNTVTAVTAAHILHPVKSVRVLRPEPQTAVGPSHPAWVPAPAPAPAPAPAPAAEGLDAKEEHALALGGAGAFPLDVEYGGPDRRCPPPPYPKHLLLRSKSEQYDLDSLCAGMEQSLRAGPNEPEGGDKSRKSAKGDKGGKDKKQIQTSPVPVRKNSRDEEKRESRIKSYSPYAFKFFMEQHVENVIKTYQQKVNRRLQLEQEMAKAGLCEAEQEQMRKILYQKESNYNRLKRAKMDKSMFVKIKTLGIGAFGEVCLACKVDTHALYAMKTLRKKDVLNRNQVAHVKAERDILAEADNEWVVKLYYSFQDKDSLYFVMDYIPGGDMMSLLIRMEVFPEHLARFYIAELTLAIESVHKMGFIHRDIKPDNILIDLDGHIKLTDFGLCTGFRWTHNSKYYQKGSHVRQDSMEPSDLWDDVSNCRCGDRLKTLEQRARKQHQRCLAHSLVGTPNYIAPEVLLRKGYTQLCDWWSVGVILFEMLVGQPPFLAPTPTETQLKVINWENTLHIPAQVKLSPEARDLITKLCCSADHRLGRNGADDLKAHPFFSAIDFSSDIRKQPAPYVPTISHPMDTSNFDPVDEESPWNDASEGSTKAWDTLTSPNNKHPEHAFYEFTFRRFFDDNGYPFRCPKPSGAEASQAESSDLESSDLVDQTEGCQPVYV

panel of 468 kinases [5] = biological target: T5, panel of 468 kinases (Homo sapiens, UniProt Q04759); details: PRKCQ; 1 μM; read-out: % control
T5 construct: purchased KINOMEscan (ScanMAX) service
T5 sequence (Q04759 whole entry): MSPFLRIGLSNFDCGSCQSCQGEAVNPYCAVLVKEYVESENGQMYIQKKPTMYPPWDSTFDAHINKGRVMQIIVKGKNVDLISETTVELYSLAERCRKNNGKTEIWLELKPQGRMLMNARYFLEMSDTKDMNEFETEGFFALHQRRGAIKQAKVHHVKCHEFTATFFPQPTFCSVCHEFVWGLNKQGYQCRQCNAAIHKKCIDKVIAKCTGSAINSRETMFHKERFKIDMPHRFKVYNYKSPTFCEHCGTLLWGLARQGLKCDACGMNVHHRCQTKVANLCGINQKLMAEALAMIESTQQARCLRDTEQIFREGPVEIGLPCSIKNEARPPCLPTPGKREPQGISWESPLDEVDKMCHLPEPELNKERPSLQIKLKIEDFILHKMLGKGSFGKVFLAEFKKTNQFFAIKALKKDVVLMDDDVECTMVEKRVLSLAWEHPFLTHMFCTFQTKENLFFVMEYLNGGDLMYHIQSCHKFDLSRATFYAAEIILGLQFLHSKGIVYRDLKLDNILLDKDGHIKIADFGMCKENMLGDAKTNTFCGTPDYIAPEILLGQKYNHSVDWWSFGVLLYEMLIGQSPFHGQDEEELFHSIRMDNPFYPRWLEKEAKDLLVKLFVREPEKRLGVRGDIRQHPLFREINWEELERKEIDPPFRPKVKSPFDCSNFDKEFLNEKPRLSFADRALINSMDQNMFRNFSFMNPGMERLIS

T2 sequence (P00533 25-1210 T790M): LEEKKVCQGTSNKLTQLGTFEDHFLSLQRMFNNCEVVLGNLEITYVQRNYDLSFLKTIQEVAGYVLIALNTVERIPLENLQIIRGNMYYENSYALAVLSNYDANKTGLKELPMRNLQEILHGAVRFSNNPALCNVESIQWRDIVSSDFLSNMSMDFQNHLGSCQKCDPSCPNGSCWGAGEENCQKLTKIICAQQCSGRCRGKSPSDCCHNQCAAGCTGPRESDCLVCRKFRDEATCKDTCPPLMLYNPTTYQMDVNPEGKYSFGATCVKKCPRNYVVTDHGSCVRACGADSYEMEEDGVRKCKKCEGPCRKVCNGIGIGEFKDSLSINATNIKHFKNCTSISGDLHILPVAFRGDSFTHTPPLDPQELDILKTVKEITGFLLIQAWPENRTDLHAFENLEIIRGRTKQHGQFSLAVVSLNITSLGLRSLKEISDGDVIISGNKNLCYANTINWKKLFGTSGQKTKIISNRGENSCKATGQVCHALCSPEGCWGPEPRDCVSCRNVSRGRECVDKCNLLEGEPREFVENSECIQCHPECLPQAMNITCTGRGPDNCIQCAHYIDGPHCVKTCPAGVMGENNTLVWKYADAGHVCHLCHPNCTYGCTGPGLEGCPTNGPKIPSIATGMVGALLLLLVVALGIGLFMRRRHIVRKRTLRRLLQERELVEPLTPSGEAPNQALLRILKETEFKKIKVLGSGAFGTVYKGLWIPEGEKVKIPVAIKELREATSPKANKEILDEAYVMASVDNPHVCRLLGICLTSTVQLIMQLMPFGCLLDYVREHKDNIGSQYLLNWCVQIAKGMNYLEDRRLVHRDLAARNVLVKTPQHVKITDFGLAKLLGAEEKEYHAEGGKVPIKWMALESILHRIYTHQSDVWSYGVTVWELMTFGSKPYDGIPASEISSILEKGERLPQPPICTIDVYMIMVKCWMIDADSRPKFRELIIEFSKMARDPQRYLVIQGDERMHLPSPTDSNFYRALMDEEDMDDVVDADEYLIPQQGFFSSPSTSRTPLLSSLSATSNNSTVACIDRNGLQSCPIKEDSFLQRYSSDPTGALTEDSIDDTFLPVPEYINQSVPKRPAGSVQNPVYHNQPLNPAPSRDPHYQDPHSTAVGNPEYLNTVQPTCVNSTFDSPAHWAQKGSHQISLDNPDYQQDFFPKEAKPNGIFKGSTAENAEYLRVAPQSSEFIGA

In the case of `CNc1nc(Nc2ccc(S(=O)(=O)N3CCC(N4CCOCC4)CC3)cc2OC)nc2[nH]cc(Cl)c12` [Compound 12, 5-chloro-N2-(2-methoxy-4-((4-morpholinopiperidin-1-yl)sulfonyl)phenyl)-N4-methyl-7H-pyrrolo[2,3-d]pyrimidine-2,4-diamine], the remaining binding at 1 µM (panel of 468 kinases [1]) is reported as 100%, the remaining binding at 1 µM (panel of 468 kinases [2]) is reported as 75% and the remaining binding at 1 µM (panel of 468 kinases [3]) is reported as 83%. For the same compound, the remaining binding at 1 µM (panel of 468 kinases [4]) was 100% and the remaining binding at 1 µM (panel of 468 kinases [5]) was 100%.

In the case of `CNc1nc(Nc2ccc(C(=O)N3CCC(N4CCOCC4)CC3)c3c2OCO3)nc2[nH]cc(Cl)c12` [Compound 75, (7-((5-chloro-4-(methylamino)-7H-pyrrolo[2,3-d]pyrimidin-2-yl)amino)benzo[d][1,3]dioxol-4-yl)(4-morpholinopiperidin-1-yl)methanone], the remaining binding at 1 µM (panel of 468 kinases [1]) is reported as 67%, the remaining binding at 1 µM (panel of 468 kinases [2]) is reported as 63% and the remaining binding at 1 µM (panel of 468 kinases [3]) is reported as 83%. It also gave a remaining binding at 1 µM (panel of 468 kinases [4]) of 90% and a remaining binding at 1 µM (panel of 468 kinases [5]) of 100%.

`CNc1nc(Nc2ccc(P3(=O)CCN(C4CCOCC4)CC3)cc2OC)nc2[nH]cc(Cl)c12` [Compound 77, 4-(4-((5-chloro-4-(methylamino)-7H-pyrrolo[2,3-d]pyrimidin-2-yl)amino)-3-methoxyphenyl)-1-(tetrahydro-2H-pyran-4-yl)-1,4-azaphosphinane 4-oxide] gave a remaining binding at 1 µM (panel of 468 kinases [1]) of 100%, a remaining binding at 1 µM (panel of 468 kinases [2]) of 55% and a remaining binding at 1 µM (panel of 468 kinases [3]) of 91%. It also gave a remaining binding at 1 µM (panel of 468 kinases [4]) of 93% and a remaining binding at 1 µM (panel of 468 kinases [5]) of 95%.
